Columns and labels:
Assay in all cases: relative viability (nuclei count vs DMSO), 5 days (fraction); higher = more cells survive
[1] = tested on: SK-LU-1
Summary of the method: (§1)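 Each reported value is a median over duplicate plates. It expresses relative viability: treated-well nuclei count divided by vehicle-well nuclei count. Lung cancer cell lines in 1536-well plates were dosed by pin tool a day after seeding, alone with one drug or with a fixed anchor-drug dose plus five library-drug doses (not always all listed) in √10 steps, and nuclei were counted after 5 days.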

[2] = tested on: HCC-78
Summary of the method: as §1

[3] = tested on: SW 1573
Summary of the method: as §1

[4] = tested on: NCI-H1975
Summary of the method: as §1

[5] = tested on: LCLC-103H
Summary of the method: as §1

[6] = tested on: NCI-H23
Summary of the method: as §1

[7] = tested on: NCI-H3122
Summary of the method: as §1

[8] = tested on: LU99A
Summary of the method: as §1

[9] = tested on: RERF-LC-KJ
Summary of the method: as §1

[10] = tested on: LK-2
Summary of the method: as §1

[11] = tested on: NCI-H2085
Summary of the method: as §1

[12] = tested on: ChaGo-K-1
Summary of the method: as §1

[13] = tested on: HCC-366
Summary of the method: as §1

[14] = tested on: SW 900
Summary of the method: as §1

[15] = tested on: NCI-H2405
Summary of the method: as §1

[16] = tested on: NCI-H1666
Summary of the method: as §1

[17] = tested on: HCC-44
Summary of the method: as §1

[18] = tested on: EMC-BAC-2
Summary of the method: as §1

[19] = tested on: NCI-H1563
Summary of the method: as §1

[20] = tested on: EPLC-272H
Summary of the method: as §1

[21] = tested on: LXF-289
Summary of the method: as §1

[22] = tested on: NCI-H2126
Summary of the method: as §1

[23] = tested on: HCC-827
Summary of the method: as §1

[24] = tested on: LOU-NH91
Summary of the method: as §1

Q: For `C[C@@H]1CN(CC(=O)Nc2ccc3c(c2)Cc2cccc(-c4cc(=O)cc(N5CCOCC5)o4)c2S3)C[C@H](C)O1` + Nc1nc2[nH]cc(CCc3ccc(C(=O)N[C@@H](CCC(=O)O)C(=O)O)cc3)c2c(=O)[nH]1 [Pemetrexed] (partner 0.2 µM), which relative viability ([1]; first compound 0.04 µM) is on record?
A: Its relative viability is 1.08.

Q: And the relative viability ([1]; first compound 0.1265 µM)?
A: Its relative viability is 0.933.

Q: And the relative viability ([1]; first compound 0.4 µM)?
A: The relative viability was 1.01.

Q: What about the relative viability ([1]; first compound 4 µM) of the same compound?
A: Its relative viability is 0.756.

Q: What about the relative viability ([2]; first compound 0.04 µM) of the same compound?
A: The relative viability was 0.809.

Q: What about the relative viability ([2]; first compound 0.1265 µM) of the same compound?
A: Its relative viability is 0.84.

Q: And the relative viability ([2]; first compound 0.4 µM)?
A: The relative viability was 0.889.

Q: What about the relative viability ([2]; first compound 4 µM) of the same compound?
A: The relative viability was 0.917.

Q: What about the relative viability ([3]; first compound 0.04 µM) of the same compound?
A: Its relative viability is 0.935.

Q: What about the relative viability ([3]; first compound 0.1265 µM) of the same compound?
A: Its relative viability is 0.855.

Q: What about the relative viability ([3]; first compound 0.4 µM) of the same compound?
A: Its relative viability is 0.903.

Q: And the relative viability ([3]; first compound 4 µM)?
A: The relative viability was 0.822.

Q: What about the relative viability ([4]; first compound 0.04 µM) of the same compound?
A: The relative viability was 0.268.

Q: And the relative viability ([4]; first compound 0.1265 µM)?
A: The relative viability was 0.263.

Q: What about the relative viability ([4]; first compound 0.4 µM) of the same compound?
A: Its relative viability is 0.303.

Q: What about the relative viability ([4]; first compound 4 µM) of the same compound?
A: The relative viability was 0.274.

Q: And the relative viability ([5]; first compound 0.04 µM)?
A: The relative viability was 0.495.

Q: What about the relative viability ([5]; first compound 0.1265 µM) of the same compound?
A: The relative viability was 0.464.

Q: What about the relative viability ([5]; first compound 0.4 µM) of the same compound?
A: The relative viability was 0.458.

Q: And the relative viability ([5]; first compound 4 µM)?
A: Its relative viability is 0.507.

Q: And the relative viability ([6]; first compound 0.04 µM)?
A: Its relative viability is 0.685.

Q: What about the relative viability ([6]; first compound 0.1265 µM) of the same compound?
A: Its relative viability is 0.696.

Q: And the relative viability ([6]; first compound 0.4 µM)?
A: The relative viability was 0.617.

Q: And the relative viability ([6]; first compound 4 µM)?
A: The relative viability was 0.521.

Q: What about the relative viability ([7]; first compound 0.04 µM) of the same compound?
A: The relative viability was 0.192.

Q: What about the relative viability ([7]; first compound 0.1265 µM) of the same compound?
A: Its relative viability is 0.193.

Q: And the relative viability ([7]; first compound 0.4 µM)?
A: The relative viability was 0.192.

Q: What about the relative viability ([7]; first compound 4 µM) of the same compound?
A: The relative viability was 0.183.

Q: And the relative viability ([8]; first compound 0.04 µM)?
A: The relative viability was 0.184.

Q: What about the relative viability ([8]; first compound 0.1265 µM) of the same compound?
A: The relative viability was 0.15.

Q: What about the relative viability ([8]; first compound 0.4 µM) of the same compound?
A: Its relative viability is 0.21.

Q: And the relative viability ([8]; first compound 4 µM)?
A: The relative viability was 0.222.

Q: What about the relative viability ([9]; first compound 0.04 µM) of the same compound?
A: Its relative viability is 0.521.

Q: What about the relative viability ([9]; first compound 0.1265 µM) of the same compound?
A: Its relative viability is 0.465.

Q: What about the relative viability ([9]; first compound 0.4 µM) of the same compound?
A: The relative viability was 0.461.

Q: And the relative viability ([9]; first compound 4 µM)?
A: Its relative viability is 0.443.

Q: And the relative viability ([10]; first compound 0.04 µM)?
A: Its relative viability is 0.218.

Q: What about the relative viability ([10]; first compound 0.1265 µM) of the same compound?
A: Its relative viability is 0.288.

Q: What about the relative viability ([10]; first compound 0.4 µM) of the same compound?
A: The relative viability was 0.237.

Q: And the relative viability ([10]; first compound 4 µM)?
A: Its relative viability is 0.217.

Q: What about the relative viability ([11]; first compound 0.04 µM) of the same compound?
A: Its relative viability is 0.961.

Q: And the relative viability ([11]; first compound 0.1265 µM)?
A: Its relative viability is 0.936.

Q: And the relative viability ([11]; first compound 0.4 µM)?
A: The relative viability was 0.935.

Q: What about the relative viability ([11]; first compound 4 µM) of the same compound?
A: The relative viability was 0.759.

Q: What about the relative viability ([12]; first compound 0.04 µM) of the same compound?
A: The relative viability was 0.24.

Q: And the relative viability ([12]; first compound 0.1265 µM)?
A: Its relative viability is 0.245.

Q: What about the relative viability ([12]; first compound 0.4 µM) of the same compound?
A: The relative viability was 0.252.

Q: What about the relative viability ([12]; first compound 4 µM) of the same compound?
A: The relative viability was 0.226.

Q: What about the relative viability ([13]; first compound 0.04 µM) of the same compound?
A: Its relative viability is 0.151.

Q: What about the relative viability ([13]; first compound 0.1265 µM) of the same compound?
A: The relative viability was 0.162.

Q: What about the relative viability ([13]; first compound 0.4 µM) of the same compound?
A: The relative viability was 0.212.

Q: What about the relative viability ([13]; first compound 4 µM) of the same compound?
A: The relative viability was 0.152.

Q: And the relative viability ([14]; first compound 0.04 µM)?
A: The relative viability was 0.469.

Q: And the relative viability ([14]; first compound 0.1265 µM)?
A: The relative viability was 0.471.

Q: What about the relative viability ([14]; first compound 0.4 µM) of the same compound?
A: Its relative viability is 0.44.

Q: And the relative viability ([14]; first compound 4 µM)?
A: Its relative viability is 0.453.

Q: What about the relative viability ([15]; first compound 0.04 µM) of the same compound?
A: Its relative viability is 1.11.

Q: And the relative viability ([15]; first compound 0.1265 µM)?
A: The relative viability was 1.01.

Q: And the relative viability ([15]; first compound 0.4 µM)?
A: The relative viability was 1.04.

Q: What about the relative viability ([15]; first compound 4 µM) of the same compound?
A: Its relative viability is 1.03.

Q: What about the relative viability ([16]; first compound 0.04 µM) of the same compound?
A: The relative viability was 0.905.

Q: What about the relative viability ([16]; first compound 0.1265 µM) of the same compound?
A: Its relative viability is 0.837.

Q: What about the relative viability ([16]; first compound 0.4 µM) of the same compound?
A: The relative viability was 0.845.

Q: What about the relative viability ([16]; first compound 4 µM) of the same compound?
A: Its relative viability is 0.843.

Q: What about the relative viability ([17]; first compound 0.04 µM) of the same compound?
A: Its relative viability is 0.639.

Q: And the relative viability ([17]; first compound 0.1265 µM)?
A: The relative viability was 0.644.

Q: What about the relative viability ([17]; first compound 0.4 µM) of the same compound?
A: The relative viability was 0.639.

Q: What about the relative viability ([17]; first compound 4 µM) of the same compound?
A: The relative viability was 0.63.

Q: What about the relative viability ([18]; first compound 0.04 µM) of the same compound?
A: The relative viability was 0.417.

Q: And the relative viability ([18]; first compound 0.1265 µM)?
A: Its relative viability is 0.439.

Q: And the relative viability ([18]; first compound 0.4 µM)?
A: Its relative viability is 0.458.

Q: What about the relative viability ([18]; first compound 4 µM) of the same compound?
A: Its relative viability is 0.459.

Q: What about the relative viability ([19]; first compound 0.04 µM) of the same compound?
A: Its relative viability is 0.661.

Q: What about the relative viability ([19]; first compound 0.1265 µM) of the same compound?
A: The relative viability was 0.774.

Q: What about the relative viability ([19]; first compound 0.4 µM) of the same compound?
A: Its relative viability is 0.715.

Q: And the relative viability ([19]; first compound 4 µM)?
A: The relative viability was 0.712.

Q: And the relative viability ([20]; first compound 0.04 µM)?
A: Its relative viability is 0.311.

Q: And the relative viability ([20]; first compound 0.1265 µM)?
A: The relative viability was 0.371.

Q: What about the relative viability ([20]; first compound 0.4 µM) of the same compound?
A: The relative viability was 0.313.

Q: And the relative viability ([20]; first compound 4 µM)?
A: The relative viability was 0.269.

Q: And the relative viability ([21]; first compound 0.04 µM)?
A: The relative viability was 0.884.

Q: And the relative viability ([21]; first compound 0.1265 µM)?
A: Its relative viability is 0.99.

Q: What about the relative viability ([21]; first compound 0.4 µM) of the same compound?
A: Its relative viability is 0.89.

Q: And the relative viability ([21]; first compound 4 µM)?
A: Its relative viability is 0.818.

Q: And the relative viability ([22]; first compound 0.04 µM)?
A: Its relative viability is 0.668.

Q: What about the relative viability ([22]; first compound 0.1265 µM) of the same compound?
A: The relative viability was 0.657.

Q: And the relative viability ([22]; first compound 0.4 µM)?
A: Its relative viability is 0.77.

Q: And the relative viability ([22]; first compound 4 µM)?
A: The relative viability was 0.695.

Q: And the relative viability ([23]; first compound 0.04 µM)?
A: The relative viability was 0.253.

Q: And the relative viability ([23]; first compound 0.1265 µM)?
A: Its relative viability is 0.247.

Q: What about the relative viability ([23]; first compound 0.4 µM) of the same compound?
A: Its relative viability is 0.247.

Q: And the relative viability ([23]; first compound 4 µM)?
A: The relative viability was 0.3.

Q: What about the relative viability ([24]; first compound 0.04 µM) of the same compound?
A: The relative viability was 0.339.

Q: And the relative viability ([24]; first compound 0.1265 µM)?
A: Its relative viability is 0.367.

Q: And the relative viability ([24]; first compound 0.4 µM)?
A: Its relative viability is 0.36.

Q: And the relative viability ([24]; first compound 4 µM)?
A: Its relative viability is 0.329.
